From patent US9441024

Settings: disulfide bond; 38-membered ring

| Substance | ring closure, yield after HPLC [%] |
| --- | --- |
| C(disialo(aminoethylamide))/S1C(disialo)-SRIF28 | 58 |
| C(disialo)-C12 linker-SRIF14 | 61 |
| S1-2C(asialo)-SRIF28 | 55 |
| S1-2C(disialo)-SRIF28 | 58 |
| S1-3C(asialo)-SRIF28 | 52 |
| S1-3C(disialo)-SRIF28 | 63 |
| S1-4C(disialo)-SRIF28 | 57 |
| S1-5C(disialo)-SRIF28 | 76 |
| S1C(diGlcNAc)-SRIF28 | 60 |
| S1C(disialo (hexadecylamide))-SRIF28 | 89 |
| S1C(disialo(aminoethylamide))-SRIF28 | 73 |
| S1C(disialo)-SRIF28 | 59 |
| S1C(disialo).N19C(GlcNAc)-SRIF28 | 59 |
